# Results as given in paper PMC6668022 (Pharmaceutical research, 2019).
# “And” between values parts separate entries of the source, which are not always exact repeats. Identical values can stand only once. “Also recorded” adds a separate entry of the source. Like-named read-outs stand apart in the source and are kept apart here.
# Assays:
# EBOV [1] = experiment: microbe, parasite or virus in culture; assay type: cell-based, Ebola virus
# in vitro = conditions: human
# HeLa cells = conditions: read-out: HeLa CC50; n=2
# EBOV [2] = conditions: in vivo, 30 mg/kg/day; cited from earlier work
# [3] = test system: VP35-nucleoprotein interface; conditions: cited from earlier work
# [4] = Zaire ebolavirus, HeLa, 24 h, read-out: EC50 Activity against EBOV, n=4
# [5] = read-out: EC50 Activity against EBOV, n=4
compound,measurement,setting,value
C=CCc1ccc(O)c(OC)c1 [Eugenol],EC50,EBOV [1]; [4],1.3 ± 0.5 µM
same,CC50,in vitro,> 50 µM
CC(=O)OCCc1ccccc1 [Phenethyl acetate],EC50,EBOV [1]; [5],10 µM and 10.4 µM
same,CC50,HeLa cells,> 50 µM
CC(=O)OCc1ccccc1 [Benzyl acetate],EC50,EBOV [1]; [4],10 µM
same,EC50,EBOV [1]; [5],10.7 ± 5 µM
same,CC50,in vitro,> 50 µM
"NC(=O)c1cccnc1 [Nicotinamide, reference compound]",EC50 Activity against EBOV,EBOV [1]; n=4,inactive
"O=C(O)c1cccnc1 [Nicotinic acid, reference compound]",EC50 Activity against EBOV,EBOV [1],inactive
COc1ccc(C=O)cc1 [P-anisaldehyde],EC50,EBOV [1]; [4],2.8 µM
same,EC50,EBOV [1]; [5],2.9 ± 0.6 µM
same,CC50,in vitro,> 50 µM
CCN(CC)CCOc1ccc2c(c1)C(=O)c1cc(OCCN(CC)CC)ccc1-2 [tilorone],efficacy in a mouse model of EBOV infection,EBOV [2],100%
CC(C)[C@@H]1CC[C@@H](C)C[C@H]1O [L- menthol],EC50 Activity against EBOV,EBOV [1]; n=4,no appreciable activity; also recorded: inactive
Cc1ccc(C(=O)c2cc(O)c(O)c([N+](=O)[O-])c2)cc1 [tolcapone],IC50,[3],2000 nM
